Measured values from PubChem BioAssay AID256 (DTP/NCI, 2004).
Values joined by “and” are separate entries in the source; they are usually repeats but may differ in a detail not shown here. Equal entries are not always repeated. Inconclusive results and toxic doses are left out. The calls were made as follows: active = survival T/C of 150% or more; inactive = T/C below 125% in these data.

System: CD2F1 mice, L1210 leukemia ip, survival T/C
Test: NCI In Vivo Anticancer Drug Screen. Data for tumor model L1210 Leukemia (intraperitoneal) in CD2F1 (CDF1) mice
Details: higher = longer survival
Procedure, shortened: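 Vehicle-treated tumor-bearing mice served as controls (C) for compound-treated mice (T). Reported figure is T divided by C.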

[1] = endpoint: mean survival time, dose: 100.0 mg/kg/injection, schedule: Q04DX003 (ip), vehicle: saline with Tween-80
[2] = endpoint: mean survival time, dose: 200.0 mg/kg/injection, schedule: Q04DX003 (ip), vehicle: saline with Tween-80
[3] = endpoint: mean survival time, dose: 100.0 mg/kg/injection, schedule: Q01DX001 (ip), vehicle: saline
[4] = endpoint: mean survival time, dose: 200.0 mg/kg/injection, schedule: Q01DX001 (ip), vehicle: saline
[5] = endpoint: mean survival time, dose: 100.0 mg/kg/injection, schedule: Q01DX001 (ip), vehicle: saline with Tween-80
[6] = endpoint: mean survival time, dose: 200.0 mg/kg/injection, schedule: Q01DX001 (ip), vehicle: saline with Tween-80
[7] = endpoint: mean survival time, dose: 25.0 mg/kg/injection, schedule: Q01DX009 (ip), vehicle: saline with Tween-80
[8] = endpoint: mean survival time, dose: 50.0 mg/kg/injection, schedule: Q01DX009 (ip), vehicle: saline with Tween-80
[9] = endpoint: mean survival time, dose: 100.0 mg/kg/injection, schedule: Q01DX009 (ip), vehicle: saline with Tween-80
[10] = endpoint: mean survival time, dose: 400.0 mg/kg/injection, schedule: Q01DX001 (ip), vehicle: saline with Tween-80

Measured: T/C

[Cl][Pt+2][Cl].[NH-]C(c1ccccc1)C([NH-])c1ccccc1 (stereo not drawn)
inactive: endpoint: mean survival time, dose: 6.25 mg/kg/injection, schedule: Q04DX003 (ip), vehicle: saline with Tween-80 112 % of control and 110 % of control and 96 % of control | endpoint: mean survival time, dose: 12.5 mg/kg/injection, schedule: Q04DX003 (ip), vehicle: saline with Tween-80 102 % of control and 114 % of control and 106 % of control | endpoint: mean survival time, dose: 25.0 mg/kg/injection, schedule: Q04DX003 (ip), vehicle: saline with Tween-80 120 % of control and 124 % of control and 114 % of control | endpoint: median survival time, dose: 10.0 mg/kg/injection, schedule: Q04DX003 (ip), vehicle: Klucel (hydroxypropylcellulose) (HPC) 111 % of control | endpoint: median survival time, dose: 20.0 mg/kg/injection, schedule: Q04DX003 (ip), vehicle: Klucel (hydroxypropylcellulose) (HPC) 113 % of control | endpoint: median survival time, dose: 40.0 mg/kg/injection, schedule: Q04DX003 (ip), vehicle: Klucel (hydroxypropylcellulose) (HPC) 122 % of control | endpoint: median survival time, dose: 50.0 mg/kg/injection, schedule: Q04DX003 (ip), vehicle: Klucel (hydroxypropylcellulose) (HPC) 101 % of control | endpoint: median survival time, dose: 80.0 mg/kg/injection, schedule: Q04DX003 (ip), vehicle: Klucel (hydroxypropylcellulose) (HPC) 112 % of control | endpoint: median survival time, dose: 100.0 mg/kg/injection, schedule: Q04DX003 (ip), vehicle: Klucel (hydroxypropylcellulose) (HPC) 107 % of control | endpoint: median survival time, dose: 200.0 mg/kg/injection, schedule: Q04DX003 (ip), vehicle: Klucel (hydroxypropylcellulose) (HPC) 107 % of control

Nc1nc2nc3c(nc2c(=O)[nH]1)CN(c1ccc(C(=O)O)cc1)C3=O
inactive: [1] 95 % of control | [2] 97 % of control

CC/C1=C/N(C=O)CCc2c([nH]c3ccccc23)C(C(=O)OC)(c2cc3c(cc2OC)N(C)C2C(O)(C(=O)OC)C(OC(C)=O)C4(CC)C=CCN5CCC32C54)CC(=O)C1 (stereo not drawn)
inactive: endpoint: mean survival time, dose: 50.0 mg/kg/injection, schedule: Q01DX001 (ip), vehicle: saline 107 % of control | [3] 102 % of control | [4] 96 % of control

CNC(=O)NCC1OC(n2cnc3c(=O)[nH]c(N)nc32)C(O)C1O (stereo not drawn)
inactive: [3] 103 % of control | [4] 97 % of control | endpoint: mean survival time, dose: 400.0 mg/kg/injection, schedule: Q01DX001 (ip), vehicle: saline 103 % of control

O=C(C[n+]1cc(Br)cc2ccccc21)c1ccc(O)c(O)c1
inactive: endpoint: mean survival time, dose: 100.0 mg/kg/injection, schedule: Q01DX009 (ip), vehicle: saline 110 % of control | endpoint: mean survival time, dose: 200.0 mg/kg/injection, schedule: Q01DX009 (ip), vehicle: saline 111 % of control | endpoint: mean survival time, dose: 400.0 mg/kg/injection, schedule: Q01DX009 (ip), vehicle: saline 102 % of control

CC1CC(C)(C)NC(C)(C(C)CC(C)(C)C)O1 (stereo not drawn)
inactive: endpoint: mean survival time, dose: 50.0 mg/kg/injection, schedule: Q04DX002 (ip), vehicle: saline 108 % of control | [5] 93 % of control | endpoint: mean survival time, dose: 100.0 mg/kg/injection, schedule: Q04DX002 (ip), vehicle: saline 104 % of control | [6] 93 % of control | endpoint: mean survival time, dose: 200.0 mg/kg/injection, schedule: Q04DX002 (ip), vehicle: saline 93 % of control

C=Cn1cnc2c(N)ncnc21 (tested in a mixture with another compound)
inactive: endpoint: mean survival time, dose: 12.5 mg/kg/injection, schedule: Q01DX005 (ip), vehicle: water 101 % of control | endpoint: mean survival time, dose: 25.0 mg/kg/injection, schedule: Q01DX005 (ip), vehicle: water 104 % of control | endpoint: mean survival time, dose: 50.0 mg/kg/injection, schedule: Q01DX005 (ip), vehicle: water 101 % of control | endpoint: mean survival time, dose: 100.0 mg/kg/injection, schedule: Q01DX005 (ip), vehicle: water 101 % of control | endpoint: mean survival time, dose: 200.0 mg/kg/injection, schedule: Q01DX005 (ip), vehicle: water 104 % of control

O=C=Nc1ccc(N=Nc2ccccc2)cc1
inactive: [7] 89 % of control | [8] 88 % of control | [5] 95 % of control | [9] 98 % of control | [10] 90 % of control

CC1(C)C2CC=C(CCOC(=S)S)C1C2.[Ni] (stereo not drawn)
inactive: [7] 96 % of control | [8] 90 % of control | [9] 96 % of control | [1] 91 % of control | [2] 93 % of control

COc1cc2c(C)nc3c4cc5c(cc4ccc3c2cc1OC)OCO5
inactive: endpoint: mean survival time, dose: 3.13 mg/kg/injection, schedule: Q01DX009 (ip), vehicle: water 97 % of control | endpoint: mean survival time, dose: 6.25 mg/kg/injection, schedule: Q01DX009 (ip), vehicle: water 92 % of control | endpoint: mean survival time, dose: 12.5 mg/kg/injection, schedule: Q01DX009 (ip), vehicle: water 90 % of control | endpoint: mean survival time, dose: 25.0 mg/kg/injection, schedule: Q01DX009 (ip), vehicle: water 95 % of control | endpoint: mean survival time, dose: 50.0 mg/kg/injection, schedule: Q01DX009 (ip), vehicle: water 93 % of control

CCC1c2ccc3cc(O)ccc3c2CCC1(C)C(=O)OC (stereo not drawn)
inactive: endpoint: mean survival time, dose: 50.0 mg/kg/injection, schedule: Q01DX001 (ip), vehicle: Klucel (hydroxypropylcellulose) (HPC) 96 % of control | endpoint: mean survival time, dose: 100.0 mg/kg/injection, schedule: Q01DX001 (ip), vehicle: Klucel (hydroxypropylcellulose) (HPC) 96 % of control | endpoint: mean survival time, dose: 200.0 mg/kg/injection, schedule: Q01DX001 (ip), vehicle: Klucel (hydroxypropylcellulose) (HPC) 104 % of control

COc1ccc(Cc2c[n+](C)cc3cc(N=O)c(OC)cc23)cc1O
inactive: [3] 104 % of control | [4] 102 % of control

ClC1C(Cl)(Cl)C1(Cl)Cl
inactive: endpoint: mean survival time, dose: 37.5 mg/kg/injection, schedule: Q01DX001 (ip), vehicle: saline 100 % of control | endpoint: mean survival time, dose: 75.0 mg/kg/injection, schedule: Q01DX001 (ip), vehicle: saline 102 % of control | endpoint: mean survival time, dose: 150.0 mg/kg/injection, schedule: Q01DX001 (ip), vehicle: saline 95 % of control

CCc1c(Br)c(CC)c(CC)c(Br)c1CC
inactive: [5] 105 % of control | [9] 104 % of control | [6] 95 % of control | endpoint: mean survival time, dose: 200.0 mg/kg/injection, schedule: Q01DX009 (ip), vehicle: saline with Tween-80 101 % of control | [10] 103 % of control | endpoint: mean survival time, dose: 400.0 mg/kg/injection, schedule: Q01DX009 (ip), vehicle: saline with Tween-80 96 % of control

CCCCCCCCCCCCCCCCS(=O)(=O)CCO
inactive: [1] 90 % of control | [2] 88 % of control | endpoint: mean survival time, dose: 400.0 mg/kg/injection, schedule: Q04DX003 (ip), vehicle: saline with Tween-80 90 % of control
